From patent publication US20260200919A1, “SUBSTITUTED AMINOPYRIDINE COMPOUNDS AND METHODS OF TREATING DISEASE USING SAME” (Atavistik Bio, Inc., priority 2023, published 2026)

What was measured:
[1] = molecular target: T1, human recombinant kinase full-length wildtype AKT1 (Homo sapiens, UniProt P31749); assay: AKT1 kinase assay (wildtype, TR-FRET, Lance); type: biochemical; conditions: 0.6 nM wildtype AKT1, 50 nM Ulight-CREBtide, either 50 μM ATP or 2 mM ATP (not specified which), 60 min at RT
T1 construct: Purified human recombinant kinase full-length wildtype AKT1 was expressed in insect cells; made in house; host or cells: insect cells
T1 sequence (P31749 whole entry): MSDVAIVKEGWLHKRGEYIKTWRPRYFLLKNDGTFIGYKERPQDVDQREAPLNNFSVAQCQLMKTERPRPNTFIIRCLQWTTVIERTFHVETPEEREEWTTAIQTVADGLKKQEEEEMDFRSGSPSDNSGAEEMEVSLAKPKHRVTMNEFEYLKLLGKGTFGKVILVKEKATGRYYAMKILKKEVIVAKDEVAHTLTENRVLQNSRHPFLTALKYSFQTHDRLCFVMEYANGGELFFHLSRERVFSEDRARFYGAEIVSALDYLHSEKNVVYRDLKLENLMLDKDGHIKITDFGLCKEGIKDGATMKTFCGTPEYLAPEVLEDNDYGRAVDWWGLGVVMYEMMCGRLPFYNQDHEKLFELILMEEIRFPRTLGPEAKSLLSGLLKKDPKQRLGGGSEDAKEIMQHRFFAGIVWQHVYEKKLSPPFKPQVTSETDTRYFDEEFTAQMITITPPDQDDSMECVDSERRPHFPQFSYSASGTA
Description: AKT1 kinase assay: Inhibitory effects of compounds on wildtype AKT1 were undertaken in a 10-pt dose response kinase activity assay measuring phospho-peptide product formation based on TR-FRET signal as described in the following paragraph.
(§1) Purified human recombinant kinase full-length wildtype AKT1 was expressed in insect cells and activated in vitro by PDPK1. Ulight™—CREBtide (PerkinElmer, catalog number TRF0107) was used as the peptide substrate. The reaction buffer consisted of 50 mM HEPES pH 7.5, 10 mM MgCl2, 0.01% Triton X-100, 0.01% BSA, 2 mM DTT, 0.6 nM AKT1, 50 nM Ulight™-CREBtide and either 50 μM ATP or 2 mM ATP. The compound solution was prepared as 10 mM DMSO stock. […] Final DMSO concentration in the assay was 1%. […] The reaction was stopped after 60 min of incubation at RT by the addition of 10 μL of Detection Mix (PerkinElmer, #CR97-100) consisting of Europium-anti-phospho-CREB (Ser133) (Perkin Elmer, catalog numberTRF0200). Incubation with the detection mix for a further 60 min allowed binding of antibody to the phospho-Ulight™ CREBtide. The fluorescence emissions at 620 nm and 665 nm after excitation at […] was measured using Envision reader. The ratio of the emissions at 665 nm and at 620 nm provided the measure for the amount of phosphorylated CREBtide product of AKT1 kinase activity.

[2] = molecular target: T2, human recombinant kinase full-length AKT1 E17K (Homo sapiens, UniProt P31749, E17K); assay: AKT1 E17K kinase assay (TR-FRET, Lance); type: biochemical; conditions: 0.6 nM AKT1 E17K, 50 nM Ulight-CREBtide, either 50 μM ATP or 2 mM ATP (not specified which), 60 min at RT
T2 construct: Purified human recombinant kinase full-length AKT1 E17K was expressed in insect cells; made in house; host or cells: insect cells
T2 sequence (P31749 whole entry E17K): as the sequence (P31749 whole entry) above, with E17K counted along it
Description: AKT1 E17K kinase assay: Inhibitory effects of compounds on AKT1 E17K were undertaken in a 10-pt dose response kinase activity assay measuring phospho-peptide product formation based on TR-FRET signal as described in the following paragraph.
as §1, with “full-length” for “full-length wildtype”, “AKT1 E17K” for “AKT1”, “Ulight™-CREBtide” for “Ulight™—CREBtide”, “AKT1 E17K,” for “AKT1,”, “nM. Ulight™ CREBtide” for “nM Ulight™-CREBtide”

| IC50 [1] [nM] | IC50 [2] [nM] | Structure (SMILES) |
| --- | --- | --- |
| < 500 | < 50 | Nc1ncccc1-c1nc2ccc(-c3ccccc3)nc2n1-c1ccc(NC(=O)c2cccc(CCC(=O)O)c2)cc1 [Compound 57, 3-(3-((4-(2-(2-aminopyridin-3-yl)-5-phenyl-3H-imidazo[4,5-b]pyridin-3-yl)phenyl)carbamoyl)phenyl) propanoic acid] |
| < 500 | < 50 | Nc1ncccc1-c1nc2ccc(-c3ccccc3)nc2n1-c1ccc(NC(=O)c2ccc(C(=O)O)nc2)nc1 [Compound 151] |
| > 500 | > 500 | CC(C)(C)c1ccc2nc(-c3cccnc3N)n(-c3ccc(NC(=O)c4ccc(C(=O)O)cc4)nc3)c2c1 [Compound 174, 4-((5-(2-(2-aminopyridin-3-yl)-6-(tert-butyl)-1H-benzo[d]imidazol-1-yl)pyridin-2-yl)carbamoyl)benzoic acid] |
| < 500 | < 50 | Cc1nc(NC(=O)c2ccc(C(=O)O)c(F)c2)ccc1-n1c(-c2cccnc2N)nc2ccc(-c3ccccc3)nc21 [Compound 154] |
| < 500 | > 500 | COC(=O)c1ccc([C@@H](C)N2CC(c3ccc(-n4c(-c5cccnc5N)nc5ccc(-c6ccccc6)nc54)cc3)C2)cc1 (single isomer, unassigned) [Compound 157] |
| < 500 | < 50 | Nc1ncccc1-c1nc2ccc(-c3ccccc3)nc2n1-c1ccc(CNC(=O)c2cc(F)cc(C(=O)O)c2)cc1 [Compound 21, 3-((4-(2-(2-aminopyridin-3-yl)-5-phenyl-3H-imidazo[4,5-b]pyridin-3-yl)benzyl)carbamoyl)-5-fluorobenzoic acid] |

Second part, the compound before the results:

| Structure (SMILES) | IC50 [1] [nM] | IC50 [2] [nM] |
| --- | --- | --- |
| Cc1nc(NC(=O)c2ccc(C(=O)O)cc2)ccc1-n1c(-c2cccnc2N)nc2ccc(-c3ccccc3)cc21 [Compound 182, 4-((5-(2-(2-aminopyridin-3-yl)-6-phenyl-1H-benzo[d]imidazol-1-yl)-6-methylpyridin-2-yl)carbamoyl)benzoic acid] | < 500 | > 500 |
| CC(=O)Nc1ccc(-c2ccc3nc(-c4cccnc4N)n(-c4ccc(CNC(=O)c5cccc(CC(=O)O)c5)cc4)c3n2)cc1 [Compound 80, 2-(3-((4-(5-(4-acetamidophenyl)-2-(2-aminopyridin-3-yl)-3H-imidazo[4,5-b]pyridin-3-yl)benzyl)carbamoyl)phenyl) acetic acid] | < 500 | 200 to 500 |
| Nc1ncccc1-c1nc2cc(-c3ccccc3)cnc2n1-c1ccc(CNC(=O)c2cccc(CC(=O)O)c2)cc1 [Compound 82, 2-(3-((4-(2-(2-aminopyridin-3-yl)-6-phenyl-3H-imidazo[4,5-b]pyridin-3-yl)benzyl)carbamoyl)phenyl) acetic acid] | < 500 | 200 to 500 |
| C[C@@H](c1ccc(C(=O)O)cc1F)N1CC(c2ccc(-n3c(-c4cccnc4N)nc4ccc(-c5ccccc5)nc43)cc2)C1 [Compound 159] | < 500 | 200 to 500 |
| COC(=O)c1cccc(C(=O)N2CC(c3ccc(-n4c(-c5cccnc5N)nc5ccc(-c6ccccc6)nc54)cc3)C2)c1 [Compound 71, methyl 3-(3-(4-(2-(2-aminopyridin-3-yl)-5-phenyl-3H-imidazo[4,5-b]pyridin-3-yl)phenyl)azetidine-1-carbonyl)benzoate] | < 500 | 50 to 200 |
| Nc1ncccc1-c1nc2cc(-c3ccc(NC(=O)c4ccccc4)cc3)cnc2n1-c1ccc(CNC(=O)c2cccc(CC(=O)O)c2)cc1 [Compound 86, 2-(3-((4-(2-(2-aminopyridin-3-yl)-6-(4-benzamidophenyl)-3H-imidazo[4,5-b]pyridin-3-yl)benzyl)carbamoyl)phenyl) acetic acid] | < 500 | < 50 |
| Nc1ncccc1-c1nc2ccc(-c3ccccc3)nc2n1-c1ccc(C2CN(C(=O)c3ccccc3C(=O)O)C2)cc1 [Compound 74, 2-(3-(4-(2-(2-aminopyridin-3-yl)-5-phenyl-3H-imidazo[4,5-b]pyridin-3-yl)phenyl)azetidine-1-carbonyl)benzoic acid] | > 500 | > 500 |
